Results taken from US20260146232A1, “METHODS FOR PROMOTING HOMING AND ENGRAFTMENT OF HEMATOPOIETIC STEM CELLS” (The Trustees of Indiana University, priority 2022, published 2026).

Experiments:
m6A labelled CXCR4 = assay: m6A enrichment on CXCR4 (m6A IP combined with RT-qPCR); format: cell-based, human
Method: M6A-RNA Immunoprecipitation. MeRIP analysis was used as previously described^15. Briefly, the total RNAs were extracted, and then RNA concentration was adjusted to 1 μg/μl. RNA was fragmented into ˜100 nt size and these RNA were immunoprecipitated with the anti-m6A antibody according to the standard protocol of the Magna MeRIP m6A Kit (Merck Millipore, 17-10499). M6A enrichment was determined by qPCR analysis.

YTHDF2 = assay: Relative YTHDF2 expression level in human CB CD34+ cells; format: cell-based; conditions: siRNA 2 μM electroporated into human CB CD34+ cells
Excerpt: (§1) Human CD34^+ CB cell collection and culture. Umbilical CB units were supplied by Cleveland Cord Blood Bank and CordUse, Orlando, FL, USA. All studies were approved by the institutional review board of the IUSM. Mononuclear cells were isolated by density gradient centrifugation and CD34^+ cells were isolated by immunomagnetic selection kit (Miltenyi Biotec, 130-046-702). […] For molecular compound treatment, all reagents were ordered from Cayman Chemical (Ann Arbor, MI, USA). Briefly, molecular compounds were added in the initiation of human CB CD34^+ cells culture, the time and concentration of each molecular compound for cell treatment was shown in figure legends.
(§2) RNA extraction and real-time PCR. After cells were harvested by FACS, RNA was extracted by a RNeasy Mini Kit following manufacturer's protocol (Qiagen, 74106). Total RNA was reverse-transcribed by use of Superscript III kit (ThermoFisher, 18080093). Quantitative real-time PCR reactions were performed by SYBR Green PCR Master Mix (Thermo Fisher, Florence, KY, USA) and an Agilent Mx3000P QPCR System. Expression of housekeeping gene GAPDH was used as an internal control. Data are shown as relative mRNA level normalized to levels in vehicle control, set to 1.

CXCR4 [1] = assay: Surface CXCR4 protein level (MFI) by flow cytometry; format: cell-based, human; conditions: for CXCR4 protein level: siRNA knockdown
Excerpt: as §1
Flow cytometry. Fresh or cultured CB cells were sorted for different phenotypes by using the following antibodies. Antibodies were used to detect CD34 (BV786, BD Biosciences, 744741), CD34 (FITC, BD Biosciences, 340668), CD45RA (Taxe-red, BD Biosciences, 562298), CD90 (BV421, BD Biosciences, 562556), CD49f (cy5.5, BD Biosciences, 562495), CD38 (PE, BD Biosciences, 560981). CD3 (BV421, BD Biosciences, 562427), CD33 (PE, BD Biosciences, 555450), CD19 (PE, BD Biosciences, 555413), CXCR4 (APC, BD Biosciences, 555976) and CD45 (APC, BD Biosciences, 555485). Gating strategy of phenotypic HSCs were shown in supplementary FIG. 2B.

human CB CD34+ cells [2] = assay: Homing assay of treated human CB CD34+ cells in NSG mice; format: in vivo; conditions: 500,000 cells
Method: Homing assay. Homing of human CB CD34^+ cells was evaluated in NSG mice. Molecular compounds treated or siRNA transfected human CB CD34+ cells (500,000 for each mouse) were intravenously injected into sub-lethally irradiated (350 cGy) NSG mice. After 24 h, these recipient mice were sacrificed, BM cells from each mouse were collected. Cells were stained with anti-human CD45 antibody, then resuspended in 1% formaldehyde buffer. Flow cytometry analysis was performed to determine the percentage of human CD45^+ cells. BM cells from non-transplanted NSG mice served as negative controls.

human CB CD34+ cells [3] = assay: Long-term engraftment / limiting dilution analysis (LDA) in NSG mice; format: in vivo
Method: Limiting dilution analysis (LDA). Frequency of human SCID repopulating cells (SRCs) was determined by LDA as reported before. Increasing doses of GFP overexpressing CD34^+ cells (2500, 5000 or 10000 cells) were intravenously injected into sublethally irradiated NSG recipient mice (350 cGy; 137Cs source, single dose). Four months after transplantation, the percentage of GFP^+ human CD45^+ cell chimerism was analyzed by immunostaining and flow cytometry. For long-term engraftment assays that assess the self-renewal capacity of HSC, 3×10^6 BM cells from primary recipients of the 10000-cell group were intravenously transplanted into secondary sub-lethally irradiated NSG recipient mice.

human CB CD34+ cells [4] = assay: Chemotaxis (transwell migration) assay toward SDF-1, CB CD34+ cells; format: cell-based
Method: (§3) Chemotaxis assay. Chemotaxis assays were performed in Costar 24-well trans-well plates with 6.5 mm diameter inserts with 5.0 μm pores (Corning, NY, USA). Briefly, 650 μL of IMDM medium (37° C.) that contained 0.5% bovine serum albumin (Sigma-Aldrich) and SDF-1 (0, 50 ng/mL) was added to the bottom well. Cells were suspended at 1×10^5 cells/100 μL in IMDM medium and loaded to the upper chamber of the trans-well. Trans-well plates were placed in a 37° C. incubator with 95% humidity and 5% CO2 for 4 hours. Percent migration was measured using flow cytometry with number of cells in the bottom chamber divided by number of cells placed in the upper chamber. To calculate the percent migration of CB HSCs, phenotypic HSCs was determined by surface staining and flow cytometry analysis. Human CB HSC chemotaxis was calculated as number of HSCs in the bottom chamber divided by number of HSCs loaded in the upper chamber. For AMD3100 administration, cells were treated with 5 μg/mL AMD3100 (239820, Sigma-Aldrich) for 30 min right before the chemotaxis assay.

CXCR4 [5] = assay: CXCR4 RNA level in human CB CD34+ cells; format: cell-based; conditions: YTHDF2 knockdown by siRNA
Method: as §2, with “1. SEQ ID NO: 1-16 are the primer sequences utilized.” for “1.”

[6] = tested on: phenotypic HSC (CD34+ CD38- CD45RA- CD90+ CD49f+); assay: Chemotaxis (transwell migration) assay toward SDF-1, phenotypic HSCs; format: cell-based, human
Method: as §3

YTHDF2 and CXCR4 = assay: YTHDF2 binding level of CXCR4 (YTHDF2 RIP combined with RT-qPCR); format: cell-based, human
Method: RNA immunoprecipitation. RNA immunoprecipitation was performed as previously described^14. Briefly, 0.5-1×10^6 collected human CD34^+ cells were lysed in buffer A (20 mM Tris-Cl, pH 8.0; 100 mM NaCl, 1 mM EDTA, 0.5% NP-40, protease and RNase inhibitors) for 20 min at 4° C. After centrifugation for 5 min, 1/10th volume of cell lysate was saved as input. Anti-YTHDF2 (Abcam, ab220163) was prebound to the protein A/G beads and then reacted with the rest of the cell lysate overnight at 4° C. After elution from the beads, the RNA samples were precipitated with ethanol and dissolved in RNase-free water. RNAs were further purified with RNA Clean and Concentrator-5 (Zymo, R1013). The relative CXCR4 enrichment was determined by calculating the Ct values of the RIP sample relative to the input sample. Expression of non-m6a housekeeping gene ACTB was used as an internal control. Data are shown as relative binding level normalized to levels in sh-Control group, set to 1.

CB CD34+ cells = assay: Colony-forming unit (CFU) assay; format: cell-based, human; conditions: AGII-treated CB CD34+ cells
FTO = assay: Relative FTO expression level by realtime PCR; format: cell-based; conditions: AGII 4 μM, 20 hours, human CB CD34+ cells
Method: Human CD34^+ CB cell collection and culture. Umbilical CB units were supplied by Cleveland Cord Blood Bank and CordUse, Orlando, FL, USA. All studies were approved by the institutional review board of the IUSM. Mononuclear cells were isolated by density gradient centrifugation and CD34^+ cells were isolated by immunomagnetic selection kit (Miltenyi Biotec, 130-046-702). The purity of human CD34^+ CB cells was over 90% and the cells were cultured in StemSpanII serum-free medium ([…] Technologies, 09650) supplemented with 100 ng/mL stem cell factor (SCF), 100 ng/mL FMS-like tyrosine kinase 3 ligand (Flt3L) and 100 ng/mL thrombopoietin (TPO). For molecular compound treatment, all reagents were ordered from Cayman Chemical (Ann Arbor, MI, USA). Briefly, molecular compounds were added in the initiation of human CB CD34^+ cells culture, the time and concentration of each molecular compound for cell treatment was shown in figure legends.
as §2, with “Expression of housekeeping gene GAPDH was used as an internal control. Data are shown as relative mRNA level normalized to levels in vehicle control, set to 1.” left out

[7] = AGII-treated human CB CD34+ cells

5′-TTGGCTATTGGGAACGTCCTT-3′ (partner strand not given here) [siRNA]
expression level of m6A labelled CXCR4 (m6A labelled CXCR4; YTHDF2 knockdown by siRNA): greatly increased
YTHDF2 expression at the RNA and protein level (YTHDF2): efficiently downregulated
CXCR4 protein level (CXCR4 [1]; HSCs (CD34+ CD38- CD45RA- CD49f+ CD90+)): notably upregulated
CXCR4 protein level (CXCR4 [1]; human CB CD34+ cells): notably upregulated
human CB CD34+ cell homing in NSG mice (human CB CD34+ cells [2]; siRNA transfected, 24 hours): enhanced
engraftment in secondary NSG mice (human CB CD34+ cells [3]; BM cells from siRNA transfected group): enhanced engraftment
increase in number of functionally detectable SRCs compared with control (human CB CD34+ cells [3]; siRNA transfected group): ~4 fold
SRC frequency (Poisson distribution analysis) (human CB CD34+ cells [3]; siRNA transfected group, control 1/2439): 1/667
number of SRCs (human CB CD34+ cells [3]; siRNA transfected group, control 410): 1478 SRCs in 1×10^6 cells
human myeloid and B-cell chimerism (human CB CD34+ cells [3]; siRNA transfected, BM 4 months): significantly increased
engraftment vs control group (human CB CD34+ cells [3]; siRNA transfected, PB at 2 and 4 months, BM at 4 months): enhanced engraftment
migration of CB CD34+ cells to SDF-1 (human CB CD34+ cells [4]; siRNA transfected cells): significant migration
RNA level of CXCR4 (CXCR4 [5]): significantly upregulated
migration to SDF-1 in the HSC population ([6]; siRNA transfected cells, SDF-1 50 ng/mL): Enhanced migration
binding level of YTHDF2 and CXCR4 (YTHDF2 and CXCR4; YTHDF2 knockdown by siRNA): significantly decreased

Angiotensin II [AGII, peptide hormone of the RAAS system]
relative m6A labeled CXCR4 level (m6A labelled CXCR4; [7]): decreased
protein level of CXCR4 (CXCR4 [1]; AGII-treated vs vehicle): upregulates
colony output vs vehicle (CB CD34+ cells): no significant difference
homing to mouse BM (human CB CD34+ cells [2]; 20 hours AGII treatment, 24 h after transplantation): dramatically promoted
engraftment in NSG recipients vs control (human CB CD34+ cells [3]; AGII-treated cells, 10,000 cells, PB and BM): significantly increased
human myeloid and lymphoid cell chimerism (human CB CD34+ cells [3]; AGII-treated cells, BM 4 months): increased
SRC frequency (Poisson distribution analysis) (human CB CD34+ cells [3]; AGII-treated cells, control 1/3984): 1/1280
number of SRCs (human CB CD34+ cells [3]; AGII-treated cells, control 251): 781 SRCs
engraftment in secondary transplantation vs control (human CB CD34+ cells [3]; AGII-treated cells, secondary NSG mice at 4 months): enhanced engraftment
FTO expression (FTO): significantly upregulated
human CB CD34+ cell migration toward graded doses of SDF-1 (human CB CD34+ cells [4]; AGII-treated cells): greatly enhanced
chemotaxis to SDF-1 of HSCs ([6]; AGII-treated cells): greatly enhanced
binding between YTHDF2 and CXCR4 (YTHDF2 and CXCR4; [7]): decreased
